In ChEMBL document CHEMBL1152493, “CoMFA and docking studies of 2-phenylindole derivatives with anticancer activity” (Eur J Med Chem, 2009):

Test system: MDA-MB-231
Assay: Cytotoxicity against human MDA-MB-231 cells
Format: functional, cell-based

Compound | IC50 (read-out: IC50) | IC50 (read-out: pIC50 (converted))
COc1ccc2c(C=O)c(-c3ccccc3)[nH]c2c1 | 240 nM | 240 nM
CCC(C)c1ccc2[nH]c(-c3ccc(OC)cc3)c(C=O)c2c1 (stereo unspecified) | 72 nM | 71.9 nM
COc1ccc(-c2[nH]c3cc(OC)c(OC)cc3c2C=O)cc1 | 220 nM | 220 nM
